Measurements as given in PMC10454375, “Cell-Impermeable Inhibitors Confirm That Intracellular Human Transglutaminase 2 Is Responsible for the Transglutaminase-Associated Cancer Phenotype” (International Journal of Molecular Sciences, 2023).
Peptide text beside a SMILES is read from it. * marks the point of attachment. X1 = C=CC(=O)NCCCCC(NC(=O)OCc1ccccc1)C(=O)N1CCN(C(=O)C(CCC(=O)*)NC(=O)c2cccc3ccccc23)CC1

Key:
[1] = test system: MDA-MB-231 cells; assay: Cell proliferation assay, MDA-MB-231; format: cell-based; conditions: concentrations up to 100 µM, 48 h
Protocol: (§1) MDA-MB-468 cells were cultured in Dulbecco’s Modified Eagle Medium (DMEM)/F-12 DMEM, Gibco Laboratories, New York, NY, USA), 10% FBS (Gibco Laboratories, New York, NY, USA), 50 U/mL penicillin, and 50 μg/mL streptomycin (Gibco Laboratories, New York, NY, USA), while MDA-MB-231 and MDA-MB-436 cells were cultured in DMEM High Glucose with/stable L-Glutamine (EuroClone, Pero, MI, Italy), 10% FBS, and antibiotics, all grown at 37 °C and in 5% CO2 humidified atmosphere.
(§2) The compounds were added to the cultures at the concentrations of 25, 50, 75, and 100 μM and 0.1% DMSO represented the negative control. After 48 h, the cells were trypsinized for 2 min at 37 °C, trypsin was inactivated using 1 mL of the recovered supernatants (containing 10% FBS), centrifuged at room temperature 5 min at 1200 rpm, washed with PBS and resuspended in complete medium. Finally, 50 μL of cells were diluted in 500 μL of Count & Viability Reagent (Luminex, Prodotti Gianni, Milan, Italy) and analyzed by MUSE®.
(§3) The experiments were carried out in triplicate and the average ± SD of the percentage of living cells was reported. Statistical analysis was performed calculating p value by a Student’s t-test, two-tailed, with homovariance and significance expressed by (*) p value < 0.05.
(§4) Supplementary cellular evaluation figures
(§5) Concentration (µM) Concentration (µM)
(§6) Figure S10. […]

[2] = test system: MDA-MB-436 cells; assay: Cell proliferation assay, MDA-MB-436; format: cell-based; conditions: concentrations up to 100 µM, 48 h
Protocol: as §1, §2
The experiments were carried out in triplicate and the average ± SD of the percentage of living cells was reported. […]
Figure 4 Treatment of cancer cells with cell-permeable and cell-impermeable inhibitors. […] NCEG-RHB localization is detected adjacent to the nuclei (N) in both cell types and is indicated by red arrows. […]

[3] = test system: MDA-MB-468 cells; assay: Cell proliferation assay, MDA-MB-468; format: cell-based; conditions: concentrations up to 100 µM, 48 h
Protocol: as §1, §2, §3, §4, §5, §6

[4] = test system: HaCaT cells; assay: Cell proliferation, HaCaT; format: cell-based, human; conditions: concentrations up to 100 µM
Protocol: (§7) Figure 4 Treatment of cancer cells with cell-permeable and cell-impermeable inhibitors. (A) HaCaT and SCC-13 are epidermis-derived cutaneous squamous cell carcinoma cells that were treated for 10 h with NCEG-RHB prior to imaging using a spinning disc confocal microscope. NCEG-RHB localization is detected adjacent to the nuclei (N) in both cell types and is indicated by red arrows. The HaCaT cell cultures were also stained for 15 min with MitoTracker Green before imaging. MitoTracker Green detects mitochondria membrane proteins inside the cell and the labelling is indicated by green arrows. White scale bars = 100 µm. (B) SCC-13 cells treated with cell-impermeable inhibitor 18 (NCEG2) and cell-permeable inhibitors NC9, AA9, and NCEG-RHB. Scale bars represent 50 µm; (*) p value < 0.001 (C) HaCaT cells treated with cell-impermeable inhibitor 18 (NCEG2) and cell-permeable inhibitors NC9 and AA9. Scale bars represent 50 µm; (*) p value < 0.001. (D) MDA-MB-436 cells treated with cell-impermeable 18 (NCEG2) and with cell-permeable inhibitors NC9, AA9 and NCEG-RHB. Experiments were carried out in triplicate and are represented as average ± SD of the percentage of living cells; (**) p value < 0.01.

[5] = test system: SCC-13 cells; assay: Cell proliferation, SCC-13; format: cell-based, human; conditions: concentrations up to 100 µM
Protocol: as §7

[6] = test system: MDA-MB-436 cells; assay: Real-time cell migration assay (xCELLigence RTCA), MDA-MB-436; format: cell-based; conditions: 25 µM, 24 h
Protocol: (§8) We assayed the motility of MDA-MB-436 cells in the presence of vehicle or TG2 inhibitors 18 (NCEG2), 19 (NCEG-RHB), and NC9 at 25 μM concentration with the xCELLigence RTCA system (Real-Time Cell Analyzer System, Acea Biosciences Inc., San Diego, CA, USA). About 3 × 10^5 cells/wells were put into the top chambers of CIM-16 plates and the bottom chambers were filled with medium containing 5% FBS (Gibco Laboratories, New York, NY, USA) as a chemoattractant. Signal detection was done every 15 min for 24 h and each determination was performed in triplicate. Impedance values were expressed as a dimensionless parameter (Cell Index, CI), and values greater than 0.1 were considered positive. The rate of cell migration was also quantified by calculating the steepness, inclination, gradient, and changing rate of the CI curves over time (Slope).
(§9) A Vehicle B 0.025 Vehicle
(§10) C 2.5 Vehicle D 0.15 Vehicle
(§11) Figure S11. Migration assay: A) Dynamic monitoring of the migration of MDA-MB-436 cells.
(§12) We recorded for 24 hours the migration of the cells in the presence only of the vehicle or of the indicated TG2 inhibitors, used at 25 µM concentrations. Data are reported as Cell Index (CI) values ± SD. […] We recorded for 24 hours the migration of the cells in the presence only of the vehicle or of the indicated TG2 inhibitors, used at 25 µM concentrations. […]

[7] = test system: MDA-MB-231 cells; assay: Real-time cell migration assay (xCELLigence RTCA), MDA-MB-231; format: cell-based; conditions: 25 µM, 24 h
Protocol: as §8, §9, §10, §11, §12

C=CC(=O)NCCCCC(NC(=O)OCc1ccccc1)C(=O)N1CCN(C(=O)C(CCC(=O)NCC(=O)NCC(=O)NCC(=O)NC(CC(=O)O)C(=O)NC(CC(=O)O)C(=O)NC(CC(=O)O)C(=O)O)NC(=O)c2cccc3ccccc23)CC1 (stereo not shown) [Compound 18] (X1-GGGDDD-OH; configuration not given here)
effect on cell proliferation [1]: did not have any effect on cell proliferation
effect on cell proliferation [2]: did not have any effect on cell proliferation
effect on cell proliferation [3]: did not have any effect on cell proliferation
effect on cell proliferation [4]: did not have any effect on cell proliferation
effect on cell proliferation [5]: did not have any effect on cell proliferation
effect on cell migration [6]: failed to suppress migration
effect on cell migration [7]: failed to suppress migration
